# Literature values in patent US5478816A, “Liquid vitamin formulations containing vitamin D esters” (Bristol-Myers Squibb Company, priority 1993, dated 1995).
# Like-named read-outs stand apart in the source and are kept apart here.
# Conditions: cited from earlier work
Molecule,"stability (in corn oil, propylene glycol, and milk)",stability (in propylene glycol when diluted in water),stability (at a mid-pH),stability (in an alkaline medium or in the presence of light and air),stability (in an aqueous environment),stability (in the presence of minerals)
C=C1CC[C@H](O)C/C1=C/C=C1\CCC[C@]2(C)[C@@H]([C@H](C)/C=C/[C@H](C)C(C)C)CC[C@@H]12 [Vitamin D2],stable,deteriorate,,,,
vitamin D,,,stable,slowly destroyed,unstable,unstable
